Patent US4215135A, “Antiinflammatory 2-substituted-1H-phenanthro[9,10-d]imidazoles” (E. I. Du Pont de Nemours and Company, priority 1979, dated 1980)

test system: phenylquinone-induced writhing (pain) in mice; experiment: Phenylquinone writhing test; type: in vivo, female white mice; settings: Mus musculus; oral; phenylquinone i.p.; footnote: at 2 hours; read-out: ED50 (effective analgesic dose for 50% of the mice)
Description: A procedure for detecting and comparing the analgesic activity of compounds in this series and standard drugs for which there is a good correlation with human efficacy is the phenylquinone writhing test.
The phenylquinone writhing test, modified from Siegmund, et al., Proc. Soc. Exp. Biol. Med. 95, 729 (1957), was employed. A test compound suspended in 1% methylcellulose was given orally to fasted (17-21 hours) female white mice, 5-20 animals per double blind test. […] […] The effective analgesic dose for 50% of the mice (ED50) was calculated by the moving average method of Thompson, W. R., Bact. Rev. 11, 115-145 (1947).

`COc1ccc2c(c1)c1cc(OC)ccc1c1[nH]c(S(=O)(=O)C(F)(F)F)nc21` [Example 6, 6,9-Dimethoxy-2-(trifluoromethylsulfonyl)-1H-phenanthro-[9,10-d]imidazole] showed an ED50 of 29 mg/kg.

test system: adjuvant-induced arthritis in rats; experiment: Established adjuvant-induced arthritis in rats (A.A.); type: in vivo, Charles River Lewis male rats; settings: Rattus norvegicus, 24 h; oral gavage, 7 daily doses; established adjuvant arthritis; uninjected left hind paw volume one day after last dose; read-out: A.A. ED50% (% paw volume reduction from control)

Going from `CC(C)Cc1ccc(C(C)C(=O)O)cc1` (stereo not drawn) [Ibuprofen, reference compound] to `CCCCC1C(=O)N(c2ccccc2)N(c2ccccc2)C1=O` [Phenylbutazone, reference compound], the ED50 falls from 100 mg/kg to 10 mg/kg (10-fold).

same assay, conditions: Rattus norvegicus, po, 24 h, read-out: A.A. ED50% (% paw volume reduction from control)

Going from `O=S(=O)(c1nc2c3ccc(F)cc3c3cc(F)ccc3c2[nH]1)C(F)(F)C(F)F` [Example 8, 6,9-Difluoro-2-[(1,1,2,2-tetrafluoroethyl)sulfonyl]-1H-phenanthro[9,10-d]imidazole] to `Fc1ccc2c(c1)c1cc(F)ccc1c1[nH]c(SC(F)(F)C(F)F)nc21` [Example 7, 6,9-Difluoro-2-[(1,1,2,2-tetrafluoroethyl)thio]-1H-phenanthro-[9,10-d]imidazole], the ED50 falls from 0.8 mg/kg to 0.45 mg/kg (1.8-fold).

`O=S(=O)(c1nc2c3ccccc3c3ccccc3c2[nH]1)C(F)(F)C(F)F` [Example 3, 2-[(1,1,2,2-Tetrafluoroethyl)sulfonyl]-1H-phenanthro-[9,10-d]-imidazole] and `FC(F)C(F)(F)Sc1nc2c3ccccc3c3ccccc3c2[nH]1` [Example 2, 2-[(1,1,2,2-tetrafluoroethyl)thio]-1H-phenanthro[9,10-d]imidazole] cannot be ordered by ED50: 28 mg/kg for the first, over 25 mg/kg for the second.

First: CC(=O)Oc1ccccc1C(=O)O [Aspirin, reference compound]
Second: COc1ccc2c(c1)c(CC(=O)O)c(C)n2C(=O)c1ccc(Cl)cc1 [Indomethacin, reference compound]
The ED50 of the first is 1000-fold higher: 305 mg/kg for the first, 0.3 mg/kg for the second.
